According to ChEMBL document CHEMBL5360532, “Current scenario of quinolone hybrids with potential antibacterial activity against ESKAPE pathogens” (Eur J Med Chem, 2023):
≈ marks a conversion by molar mass, not a printed value.

Legend:
Klebsiella pneumoniae [1] = test: Antibacterial activity against Klebsiella pneumoniae ATCC 13883 assessed as bacterial growth inhibition measured after 18 to 24 hrs by two fold microdilution assay; type: functional; details: time 18-24 hrs
Escherichia coli [2] = test: Antibacterial activity against Escherichia coli ATCC 8739 assessed as bacterial growth inhibition measured after 18 to 24 hrs by two fold microdilution assay; type: functional; details: time 18-24 hrs
Klebsiella pneumoniae [3] = test: Antibacterial activity against Klebsiella pneumoniae AUMC B-77 assessed as bacterial growth inhibition by agar cup diffusion method; type: functional
Staphylococcus aureus [4] = test: Antibacterial activity against Staphylococcus aureus assessed as bacterial growth inhibition by agar cup diffusion assay; type: functional
Pseudomonas aeruginosa [5] = test: Antibacterial activity against Pseudomonas aeruginosa assessed as bacterial growth inhibition by agar cup diffusion assay; type: functional
Staphylococcus aureus [6] = test: Potency index, ratio of ciprofloxacin MIC to test compound MIC for antimicrobial activity against Staphylococcus aureus assessed as bacterial growth inhibition by agar cup diffusion assay; type: functional
[7] = tested on: Mycobacterium tuberculosis; test: Antimycobacterial activity against Mycobacterium tuberculosis H37Rv assessed as bacterial growth inhibition by agar cup diffusion assay; type: functional
Escherichia coli [8] = test: Potency index, ratio of ciprofloxacin MIC to test compound MIC for antimicrobial activity against Escherichia coli assessed as bacterial growth inhibition by agar cup diffusion assay; type: functional
[9] = tested on: Mycobacterium tuberculosis; test: Antimycobacterial activity against pan sensitive Mycobacterium tuberculosis R2012-123 assessed as bacterial growth inhibition by agar cup diffusion assay; type: functional
Klebsiella pneumoniae [10] = test: Antibacterial activity against Klebsiella pneumoniae assessed as bacterial growth inhibition by agar cup diffusion assay; type: functional
Escherichia coli [11] = test: Antibacterial activity against Escherichia coli assessed as bacterial growth inhibition by agar cup diffusion assay; type: functional
Pseudomonas aeruginosa [12] = test: Antibacterial activity against Pseudomonas aeruginosa assessed as bacterial growth inhibition by agar well diffusion assay; type: functional, organism-based
Candida albicans = test: Antifungal activity against Candida albicans assessed as fungal growth inhibition by agar well diffusion assay; type: functional
Staphylococcus aureus [13] = test: Antibacterial activity against Staphylococcus aureus assessed as bacterial growth inhibition by agar well diffusion assay; type: functional, organism-based
Escherichia coli [14] = test: Antibacterial activity against Escherichia coli assessed as bacterial growth inhibition by agar well diffusion assay; type: functional, organism-based
Aspergillus niger = test: Antifungal activity against Aspergillus niger assessed as fungal growth inhibition by agar well diffusion assay; type: functional
SiHa = test: Growth inhibition of human SiHa cells measured after 48 hrs by SRB assay; type: functional
MDA-MB-231 = test: Growth inhibition of human MDA-MB-231 cells measured after 48 hrs by SRB assay; type: functional
Escherichia coli [15] = test: Antibacterial activity against Escherichia coli assessed as bacterial growth inhibition by agar streak dilution assay; type: functional
Klebsiella pneumoniae [16] = test: Antibacterial activity against Klebsiella pneumoniae assessed as bacterial growth inhibition by agar streak dilution assay; type: functional
Staphylococcus aureus [17] = test: Antibacterial activity against Staphylococcus aureus assessed as bacterial growth inhibition by agar streak dilution assay; type: functional
Staphylococcus aureus [18] = test: Antibacterial activity against Staphylococcus aureus assessed as bacterial growth inhibition by broth microdilution assay; type: functional
Escherichia coli [19] = test: Antibacterial activity against Escherichia coli assessed as bacterial growth inhibition by broth microdilution assay; type: functional
Staphylococcus aureus [20] = test: Potency index, ratio of norfloxacin MIC to test compound MIC for antimicrobial activity against Staphylococcus aureus assessed as bacterial growth inhibition measured after 18 to 24 hrs inhibition by broth microdilution assay; type: functional; details: time 18-24 hrs
Staphylococcus aureus [21] = test: Antibacterial activity against Staphylococcus aureus ATCC 29213 assessed as bacterial growth inhibition measured after 24 hrs by agar disc diffusion assay; type: functional
Pseudomonas aeruginosa [22] = test: Antibacterial activity against Pseudomonas aeruginosa ATCC 27853 assessed as bacterial growth inhibition measured after 24 hrs by agar disc diffusion assay; type: functional
Escherichia coli [23] = test: Antibacterial activity against Escherichia coli ATCC 25922 assessed as bacterial growth inhibition measured after 24 hrs by agar disc diffusion assay; type: functional
Escherichia coli [24] = test: Antibacterial activity against Escherichia coli ATCC 8739 assessed as bacterial growth inhibition by agar dilution method; type: functional
Enterobacter cloacae = test: Antibacterial activity against Enterobacter cloacae PTCC 1003 assessed as bacterial growth inhibition by agar dilution method; type: functional
Klebsiella pneumoniae [25] = test: Antibacterial activity against Klebsiella pneumoniae ATCC 10031 assessed as bacterial growth inhibition by agar dilution method; type: functional
Escherichia coli [26] = test: Antibacterial activity against Escherichia coli ATCC35218 assessed as bacterial growth inhibition measured after 18 to 24 hrs inhibition by broth microdilution assay; type: functional; details: time 18-24 hrs
Pseudomonas aeruginosa [27] = test: Antibacterial activity against Pseudomonas aeruginosa […] assessed as bacterial growth inhibition measured after 18 to 24 hrs inhibition by broth microdilution assay; type: functional; details: time 18-24 hrs
Pseudomonas aeruginosa [28] = test: Antibacterial activity against Pseudomonas aeruginosa ATCC43288 assessed as bacterial growth inhibition measured after 18 to 24 hrs inhibition by broth microdilution assay; type: functional; details: time 18-24 hrs
Staphylococcus aureus [29] = test: Antibacterial activity against Staphylococcus aureus ATCC 25923 assessed as bacterial growth inhibition measured after 18 to 24 hrs by agar dilution assay; type: functional; details: time 18-24 hrs
Staphylococcus aureus [30] = test: Potency index, ratio of ciprofloxacin MIC to test compound MIC for antibacterial activity against Staphylococcus aureus ATCC 25923 assessed as bacterial growth inhibition measured after 18 to 24 hrs by agar dilution assay; type: functional; details: time 18-24 hrs

**Q.** With O=C(O)c1cn(C2CC2)c2cc(N3CCN(Cn4nc(CN5CCN(c6ccccc6)CC5)n(-c5ccccc5)c4=S)CC3)c(F)cc2c1=O as the molecule, how does the MIC (Klebsiella pneumoniae [1]) read?
**A.** 0.125 µg/mL (≈ 0.18 µM)

**Q.** What about the MIC (Escherichia coli [2]) of the same molecule?
**A.** 0.125 µg/mL (≈ 0.18 µM)

**Q.** CCn1cc(C(=O)O)c(=O)c2cc(F)c(N3CCN(CC(=O)Nc4ccc(/C(C)=N/O)cc4)CC3)cc21 was tested. Which MIC (Klebsiella pneumoniae [3]) did it give?
**A.** 0.08 µg/mL (≈ 0.157 µM)

**Q.** O=C(CN1CCN(c2cc3c(cc2F)c(=O)c(C(=O)O)cn3C2CC2)CC1)Nc1nnc(-c2ccccc2)s1 was tested. Which MIC (Staphylococcus aureus [4]) did it give?
**A.** 1.12 µg/mL (≈ 2.04 µM)

**Q.** What about the MIC (Pseudomonas aeruginosa [5]) of the same molecule?
**A.** 7.4 µg/mL (≈ 13.5 µM)

**Q.** And the Ratio (Staphylococcus aureus [6])?
**A.** 4.6

**Q.** And the MIC [7]?
**A.** 8 µg/mL (≈ 14.6 µM)

**Q.** What about the Ratio (Escherichia coli [8]) of the same molecule?
**A.** 4.6

**Q.** What about the MIC [9] of the same molecule?
**A.** 8 µg/mL (≈ 14.6 µM)

**Q.** What about the MIC (Klebsiella pneumoniae [10]) of the same molecule?
**A.** 1.12 µg/mL (≈ 2.04 µM)

**Q.** And the MIC (Escherichia coli [11])?
**A.** 1.12 µg/mL (≈ 2.04 µM)

**Q.** What does the source list for C#CCSc1nnc(-c2cn(CC)c3cc(N4CCN(C(=O)C(O)(CC(=O)O)CC(=O)O)CC4)c(F)cc3c2=O)o1?
**A.** MIC (Pseudomonas aeruginosa [12]): 1.61 µg/mL (≈ 2.74 µM); MIC (Candida albicans): 2.18 µg/mL (≈ 3.71 µM); MIC (Staphylococcus aureus [13]): 1.61 µg/mL (≈ 2.74 µM); MIC (Escherichia coli [14]): 1.61 µg/mL (≈ 2.74 µM); MIC (Aspergillus niger): 1.47 µg/mL (≈ 2.5 µM)

**Q.** O=C(O)c1cn(C2CC2)c2cc(N3CCN(C(=O)CCSc4nnnn4Cc4ccccc4)CC3)c(F)cc2c1=O was tested. Which GI50 (SiHa) did it give?
**A.** 70 nM

**Q.** And the GI50 (MDA-MB-231)?
**A.** 80 nM

**Q.** What about the Ratio (Escherichia coli [8]) of the same molecule?
**A.** 2

**Q.** For Cc1c(F)c(N2CCNC(C)C2)cc2c1c(=O)c(C(=O)O)cn2C1CC1 (stereo not given) [GREPAFLOXACIN], which MIC (Escherichia coli [15]) is on record?
**A.** 0.5 µg/mL (≈ 1.39 µM)

**Q.** What about the MIC (Klebsiella pneumoniae [16]) of the same molecule?
**A.** 0.5 µg/mL (≈ 1.39 µM)

**Q.** And the MIC (Staphylococcus aureus [17])?
**A.** 0.5 µg/mL (≈ 1.39 µM)

**Q.** Which results are given for O=C(O)c1cn(C2CC2)c2cc(N3CCN(Cc4nnc(-c5cccc(O)c5)o4)CC3)c(F)cc2c1=O?
**A.** MIC (Staphylococcus aureus [4]): 0.3 µg/mL (≈ 0.593 µM); MIC (Staphylococcus aureus [18]): 0.125 µg/mL (≈ 0.247 µM); Ratio (Staphylococcus aureus [6]): >=4; MIC (Escherichia coli [19]): ≤ 0.125 µg/mL; Ratio (Staphylococcus aureus [20]): >=4

**Q.** COC(=O)[C@H](C)NC(=O)c1cc(=O)n(Cc2cn(C3O[C@H]4OC(C)(C)O[C@H]4[C@@H]4OC(C)(C)OC[C@@H]34)nn2)c2ccccc12 (stereo not given in full) was tested. Which MIC (Staphylococcus aureus [21]) did it give?
**A.** 9.75 µg/mL (≈ 16.3 µM)

**Q.** What about the MIC (Pseudomonas aeruginosa [22]) of the same molecule?
**A.** 9.75 µg/mL (≈ 16.3 µM)

**Q.** What about the MIC (Escherichia coli [23]) of the same molecule?
**A.** 9.75 µg/mL (≈ 16.3 µM)

**Q.** Which MIC (Candida albicans) does the source give for Clc1ccccc1C(c1ccccc1)(c1ccccc1)n1ccnc1 [CLOTRIMAZOLE] here?
**A.** 1.28 µg/mL (≈ 3.71 µM)

**Q.** What about the MIC (Aspergillus niger) of the same molecule?
**A.** 1.56 µg/mL (≈ 4.52 µM)

**Q.** With CC(=O)C(C(C)=O)C(=O)c1cn(C2CC2)c2cc(N3CCN(/N=N/c4nc(C)cc(C)n4)CC3)c(F)cc2c1=O as the molecule, how does the MIC (Escherichia coli [24]) read?
**A.** 0.015 µg/mL (≈ 0.0274 µM)

**Q.** And the MIC (Enterobacter cloacae)?
**A.** 0.015 µg/mL (≈ 0.0274 µM)

**Q.** What about the MIC (Klebsiella pneumoniae [25]) of the same molecule?
**A.** 0.015 µg/mL (≈ 0.0274 µM)

**Q.** O=C(O)c1cn(C2CC2)c2cc(N3CCN(Cn4nc(CN5CCN(c6ccc([N+](=O)[O-])cc6)CC5)oc4=S)CC3)c(F)cc2c1=O was tested. Which MIC (Escherichia coli [26]) did it give?
**A.** 0.03 µg/mL (≈ 0.0451 µM)

**Q.** What about the MIC (Pseudomonas aeruginosa [27]) of the same molecule?
**A.** 0.03 µg/mL (≈ 0.0451 µM)

**Q.** What about the MIC (Pseudomonas aeruginosa [28]) of the same molecule?
**A.** 0.03 µg/mL (≈ 0.0451 µM)

**Q.** Which results are given for CCOC(=O)c1cn(C2CC2)c2cc(N3CCN(Cc4cn(-c5ccc(C(C)=O)cc5)nn4)CC3)c(F)cc2c1=O?
**A.** MIC (Staphylococcus aureus [29]): 3.12 µg/mL (≈ 5.59 µM); Ratio (Staphylococcus aureus [30]): 2

**Q.** CNc1ccc([S+]([O-])N2CCN(c3c(F)c(C)c4c(=O)c(C(=O)O)cn(C5CC5)c4c3OC)CC2C)cc1C (stereo not given) was tested. Which MIC (Escherichia coli [15]) did it give?
**A.** 0.9 µg/mL (≈ 1.62 µM)

**Q.** What about the MIC (Klebsiella pneumoniae [16]) of the same molecule?
**A.** 0.9 µg/mL (≈ 1.62 µM)

**Q.** What about the MIC (Staphylococcus aureus [17]) of the same molecule?
**A.** 0.9 µg/mL (≈ 1.62 µM)

**Q.** Which results are given for CC/C(=C(\c1ccccc1)c1ccc(OCCN(C)C)cc1)c1ccccc1 [TAMOXIFEN]?
**A.** GI50 (SiHa): 120 nM; GI50 (MDA-MB-231): 240 nM
